We go through 24 compounds from ChEMBL document CHEMBL1148352, “1,2,4-triazolo[4,3-a]quinoxalin-1-one moiety as an attractive scaffold to develop new potent and selective human A3 adenosine receptor antagonists: synthesis, pharmacological, and ligand-receptor modeling studies” (J Med Chem, 2004).

The target in assay [1] is T1, Adenosine receptor A1 (Bos taurus, UniProt P28190).
T1 sequence (P28190 whole entry): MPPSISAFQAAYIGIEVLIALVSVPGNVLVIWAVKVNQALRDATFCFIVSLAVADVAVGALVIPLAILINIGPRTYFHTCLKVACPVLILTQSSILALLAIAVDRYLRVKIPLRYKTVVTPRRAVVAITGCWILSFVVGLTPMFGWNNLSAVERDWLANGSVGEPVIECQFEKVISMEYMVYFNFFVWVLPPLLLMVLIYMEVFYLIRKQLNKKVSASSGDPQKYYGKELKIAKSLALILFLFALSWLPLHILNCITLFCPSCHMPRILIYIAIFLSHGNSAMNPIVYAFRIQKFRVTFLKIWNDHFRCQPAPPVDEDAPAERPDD
Description: Binding affinity against adenosine A1 receptor in bovine brain membranes by [3H]CHA displacement.

Assay [2] concerns the target Adenosine receptor A2a (Bos taurus).
Assay [3] concerns the target T2, Adenosine receptor A1 (Homo sapiens, UniProt P30542).
T2 sequence (P30542 whole entry): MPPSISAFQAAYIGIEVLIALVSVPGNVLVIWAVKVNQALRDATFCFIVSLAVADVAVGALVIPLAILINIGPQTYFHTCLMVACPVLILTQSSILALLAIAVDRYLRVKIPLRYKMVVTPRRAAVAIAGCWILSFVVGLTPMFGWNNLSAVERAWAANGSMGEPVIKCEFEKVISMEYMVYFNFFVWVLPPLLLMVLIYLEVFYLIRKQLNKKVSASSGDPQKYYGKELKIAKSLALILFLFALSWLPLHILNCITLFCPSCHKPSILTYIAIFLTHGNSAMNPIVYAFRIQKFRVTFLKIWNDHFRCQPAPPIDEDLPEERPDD
Kind of assay: biochemical.
Description: Binding affinity against human adenosine A1 receptor expressed in CHO cells using [3H]CHA

Assay [4] addresses T3, Adenosine receptor A3 (Homo sapiens, UniProt P0DMS8).
T3 sequence (P0DMS8 whole entry): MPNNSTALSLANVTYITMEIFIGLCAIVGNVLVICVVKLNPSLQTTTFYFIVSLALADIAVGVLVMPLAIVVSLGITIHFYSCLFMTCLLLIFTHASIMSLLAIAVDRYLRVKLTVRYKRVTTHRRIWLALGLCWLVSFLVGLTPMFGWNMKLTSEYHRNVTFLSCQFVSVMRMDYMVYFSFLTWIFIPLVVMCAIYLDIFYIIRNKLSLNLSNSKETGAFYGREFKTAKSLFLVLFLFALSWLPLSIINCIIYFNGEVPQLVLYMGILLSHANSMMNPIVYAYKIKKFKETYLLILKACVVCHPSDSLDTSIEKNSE
Put plainly: biochemical.
Description: Binding affinity against human adenosine A3 receptor expressed in CHO cells by [125I]AB-MECA displacement.

The target of assay [5] is T4, Adenosine receptor A1 (Bos taurus) (UniProt P28190).
T4 sequence (whole entry): T1 sequence (P28190 whole entry)
Kind of assay: Inhibition of [3H]CHA binding to adenosine A1 receptor of bovine brain membranes. It is filed as cell membranes.

Assay [6] addresses T5, Adenosine receptor A3 (Homo sapiens) (UniProt P0DMS8).
T5 sequence (whole entry): T3 sequence (P0DMS8 whole entry)
Kind of assay: Percent inhibition against human adenosine A3 receptor expressed in CHO cells using [125I]AB-MECA at 1 uM. It is filed as cell-based.

For assay [7], the system named is Adenosine receptor A2a (Bos taurus). Kind of assay: Inhibition of [3H]-CGS- 21680 binding to adenosine A2a receptor of bovine striatal membranes.
In assay [8] the target is T6, Adenosine receptor A1 (Homo sapiens) (UniProt P30542).
T6 sequence (whole entry): T2 sequence (P30542 whole entry)
Kind of assay: Percent inhibition against human adenosine A1 receptor expressed in CHO cells using [3H]CHA at 10 uM. Type of assay: cell-based.

For assay [9], the target named is T3, Adenosine receptor A3. Kind of assay: Effective concentration for inhibition of NECA-stimulated [35S]GTP-gamma-S, binding at human adenosine A3 receptor expressed in CHO cells. It is filed as functional, cell-based. On the technique in general: GTPγS resists hydrolysis and so accumulates on activated G proteins.
In assay [10] the target is Adenosine receptors; A1 & A3 (Homo sapiens) (UniProt P30542+P0DMS8). Put plainly: Selectivity as ratio of affinity against human adenosine A3 and A1 receptors. It is filed as protein assay.
Assay [11] has as its target Adenosine receptors; A2a & A3 (Homo sapiens) (UniProt P0DMS8+P29274). Put plainly: Selectivity as ratio of affinity against human adenosine A3 and A2A receptors. It is filed as protein assay.

Each structure is given as a SMILES string. pEC50, pKi: −log10 of the molar value.

Adenosine receptors; A2a & A3 (Homo sapiens), sequence (P29274 whole entry, looked up, one chain of several): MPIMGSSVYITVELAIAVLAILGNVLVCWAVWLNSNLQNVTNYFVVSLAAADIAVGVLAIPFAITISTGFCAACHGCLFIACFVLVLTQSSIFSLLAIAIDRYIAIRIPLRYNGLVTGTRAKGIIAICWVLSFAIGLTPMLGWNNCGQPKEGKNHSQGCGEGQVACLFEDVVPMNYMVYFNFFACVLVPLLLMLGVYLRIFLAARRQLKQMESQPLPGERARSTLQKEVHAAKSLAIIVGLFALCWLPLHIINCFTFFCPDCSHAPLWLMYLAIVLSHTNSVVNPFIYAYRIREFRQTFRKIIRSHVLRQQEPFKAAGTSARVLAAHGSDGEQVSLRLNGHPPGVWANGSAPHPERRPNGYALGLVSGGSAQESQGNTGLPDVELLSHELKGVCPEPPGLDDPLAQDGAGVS

As to `CC(=O)Oc1ccc(-n2nc3c(=O)[nH]c4ccccc4n3c2=O)cc1`, the pKi in [1] is 7.59; in assay [2], 5.01; in [3] it was 6.49; in assay [4] it was 7.95.
Turning to `CC(=O)Oc1ccc(-n2nc3c(=O)[nH]c4c([N+](=O)[O-])cccc4n3c2=O)cc1`, the I in assay [5] worked out at 21.3%; in [6], 20%; in assay [7], 0%.
Regarding `COc1ccc(-n2nc3c(=O)[nH]c4c([N+](=O)[O-])cccc4n3c2=O)cc1`, the I came to 25% in assay [5], 0% in [8] and 14% in assay [7].
In turn, `COc1ccc(-n2nc3c(N)nc4c(N)cccc4n3c2=O)cc1` gave an I in assay [5] of 38%. Also, the pKi was 5.98 in [2], 6.73 in assay [3] and 7.66 in assay [4].
Consider `CCOc1ccc(-n2nc3c(N)nc4ccccc4n3c2=O)cc1`, for which the values for the negative-log Ki (pKi) in assay [1], in assay [2] and in assay [4] were 6.27, 4.89 and 6.69, respectively.
`COc1ccc(-n2nc3c(N)nc4c([N+](=O)[O-])cccc4n3c2=O)cc1`: the values for the I in assay [5], in [8] and in assay [7] were 19%, 45% and 16.5%, respectively. Besides, the pKi in assay [4] was 7.33.
As for `O=c1[nH]c2c([N+](=O)[O-])cccc2n2c(=O)n(-c3ccc(O)cc3)nc12`, the results for the I in [5], in [6] and in assay [7] were 38%, 21% and 4%, respectively.
Compound `Nc1nc2c([N+](=O)[O-])cccc2n2c(=O)n(-c3ccc(O)cc3)nc12` displayed an I in assay [6] of 45%. For the same compound, the pKi in assay [1] is 6.35; in [2] it was 5.80.
As for `CCOc1ccc(-n2nc3c(=O)[nH]c4ccccc4n3c2=O)cc1`, the pKi in assay [4] was 6.76.
Regarding `O=c1[nH]c2c([N+](=O)[O-])cccc2n2c(=O)n(-c3ccc([N+](=O)[O-])cc3)nc12`, the I in assay [6] was 24%; in [7], 0%. The compound further gave a pKi in assay [1] of 7.04.
Regarding `Nc1cccc2c1[nH]c(=O)c1nn(-c3ccc(O)cc3)c(=O)n12`, the results for the I in assay [6] and in [7] were 39% and 36%, respectively. In assay [1], the pKi is 6.00.
For `Nc1nc2ccccc2n2c(=O)n(-c3ccc([N+](=O)[O-])cc3)nc12`, the I in assay [5] came out at 11.9%; in [6], 28%; in assay [7], 31%.
Take `Nc1nc2c([N+](=O)[O-])cccc2n2c(=O)n(-c3ccccc3)nc12`: the pKi was 7.09 in assay [1], 6.06 in [3] and 8.32 in assay [4].
With `O=c1[nH]c2ccccc2n2c(=O)n(-c3ccc(O)cc3)nc12`, the pKi in [1] was 7.51; in [3], 6.77; in assay [4] it was 7.33.
Consider `COc1ccc(-n2nc3c(N)nc4ccccc4n3c2=O)cc1`, for which the pKi in assay [3] was 7.16.
For the compound `Nc1ccc(-n2nc3c(N)nc4ccccc4n3c2=O)cc1`, the pKi in assay [1] was 7.32; in assay [2] it was 8.44; in assay [4], 6.47.
In the case of `COc1ccc(-n2nc3c(=O)[nH]c4ccccc4n3c2=O)cc1`, in [8], the I stood at 42%.
In the case of `Nc1nc2ccccc2n2c(=O)n(-c3ccc(O)cc3)nc12`, the figures for the negative-log Ki (pKi) in assay [1], in assay [2] and in assay [4] were 6.94, 7.10 and 7.14, respectively.
Take `COc1ccc(-n2nc3c(=O)[nH]c4c(N)cccc4n3c2=O)cc1`: the I in assay [5] is 16%; in assay [7], 23%. The same compound showed a negative logarithm of the Ki (pKi) in assay [4] of 7.08.
As to `CN(C)c1ccc(-n2nc3c(=O)[nH]c4ccccc4n3c2=O)cc1`, the pKi in assay [1] was 6.24; in assay [4], 6.37. In assay [7], this compound gave an I of 0%.
In turn, `Nc1ccc(-n2nc3c(=O)[nH]c4ccccc4n3c2=O)cc1` gave a negative logarithm of the Ki (pKi) in assay [4] of 5.44.
Regarding `Nc1cccc2c1nc(N)c1nn(-c3ccc(O)cc3)c(=O)n12`, the pKi was 7.21 in [1], 6.74 in [2] and 6.75 in assay [4].
With `O=c1[nH]c2ccccc2n2c(=O)n(-c3ccc([N+](=O)[O-])cc3)nc12`, the I in assay [5] is 19%; in [8], 32%; in assay [7], 21%. In addition, in assay [9], the negative logarithm of the EC50 (pEC50) is 8.27. Also, the Selectivity ratio in assay [10] and in [11] was over 16600 in each case. In [4], the pKi is 9.22.
Turning to `Nc1nc2c([N+](=O)[O-])cccc2n2c(=O)n(-c3ccc([N+](=O)[O-])cc3)nc12`, the results for the I in assay [6] and in assay [7] were 30% and 2.7%, respectively. For the same compound, the pKi in assay [1] is 6.81.

As usually defined, the pKi is the Ki on a negative log10 scale, so that one unit is a factor of ten. The low end stands for a large Ki, the high end for a small Ki. The pEC50 is the negative decadic logarithm of the EC50, by convention in mol/L.
